# Target: T1, alpha4-beta7 (Homo sapiens, UniProt P13612+P26010)
# T1 construct: Sufficient RPMI 8866 cells were removed from stock for assay; endogenous in cells; host or cells: RPMI 8866 cells
# T1 sequence (P13612 34-1032): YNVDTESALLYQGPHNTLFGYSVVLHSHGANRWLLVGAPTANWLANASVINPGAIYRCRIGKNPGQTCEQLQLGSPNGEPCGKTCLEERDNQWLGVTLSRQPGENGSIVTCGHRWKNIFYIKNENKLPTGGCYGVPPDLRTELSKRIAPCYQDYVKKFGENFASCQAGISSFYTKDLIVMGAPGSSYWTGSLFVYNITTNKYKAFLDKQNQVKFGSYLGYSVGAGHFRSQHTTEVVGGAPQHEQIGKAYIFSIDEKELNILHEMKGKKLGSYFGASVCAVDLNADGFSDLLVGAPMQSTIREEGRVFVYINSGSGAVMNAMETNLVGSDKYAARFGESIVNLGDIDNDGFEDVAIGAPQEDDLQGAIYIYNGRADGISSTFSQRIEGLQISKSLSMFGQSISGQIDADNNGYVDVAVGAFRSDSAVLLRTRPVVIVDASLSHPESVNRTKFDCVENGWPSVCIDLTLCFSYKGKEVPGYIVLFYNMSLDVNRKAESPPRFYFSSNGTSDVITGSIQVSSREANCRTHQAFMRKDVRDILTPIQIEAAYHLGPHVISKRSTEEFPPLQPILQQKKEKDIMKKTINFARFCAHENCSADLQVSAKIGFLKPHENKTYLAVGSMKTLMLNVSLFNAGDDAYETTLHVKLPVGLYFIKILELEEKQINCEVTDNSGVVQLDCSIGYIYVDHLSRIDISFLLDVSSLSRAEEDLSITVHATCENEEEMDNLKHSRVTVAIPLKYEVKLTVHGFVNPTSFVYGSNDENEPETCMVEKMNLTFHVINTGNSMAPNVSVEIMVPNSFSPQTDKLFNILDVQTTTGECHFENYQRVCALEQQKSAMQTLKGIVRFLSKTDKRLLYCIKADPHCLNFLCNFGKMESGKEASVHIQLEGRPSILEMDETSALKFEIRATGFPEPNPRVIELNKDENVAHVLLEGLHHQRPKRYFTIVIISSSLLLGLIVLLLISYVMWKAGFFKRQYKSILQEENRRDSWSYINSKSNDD
# T1 sequence (P26010 20-798): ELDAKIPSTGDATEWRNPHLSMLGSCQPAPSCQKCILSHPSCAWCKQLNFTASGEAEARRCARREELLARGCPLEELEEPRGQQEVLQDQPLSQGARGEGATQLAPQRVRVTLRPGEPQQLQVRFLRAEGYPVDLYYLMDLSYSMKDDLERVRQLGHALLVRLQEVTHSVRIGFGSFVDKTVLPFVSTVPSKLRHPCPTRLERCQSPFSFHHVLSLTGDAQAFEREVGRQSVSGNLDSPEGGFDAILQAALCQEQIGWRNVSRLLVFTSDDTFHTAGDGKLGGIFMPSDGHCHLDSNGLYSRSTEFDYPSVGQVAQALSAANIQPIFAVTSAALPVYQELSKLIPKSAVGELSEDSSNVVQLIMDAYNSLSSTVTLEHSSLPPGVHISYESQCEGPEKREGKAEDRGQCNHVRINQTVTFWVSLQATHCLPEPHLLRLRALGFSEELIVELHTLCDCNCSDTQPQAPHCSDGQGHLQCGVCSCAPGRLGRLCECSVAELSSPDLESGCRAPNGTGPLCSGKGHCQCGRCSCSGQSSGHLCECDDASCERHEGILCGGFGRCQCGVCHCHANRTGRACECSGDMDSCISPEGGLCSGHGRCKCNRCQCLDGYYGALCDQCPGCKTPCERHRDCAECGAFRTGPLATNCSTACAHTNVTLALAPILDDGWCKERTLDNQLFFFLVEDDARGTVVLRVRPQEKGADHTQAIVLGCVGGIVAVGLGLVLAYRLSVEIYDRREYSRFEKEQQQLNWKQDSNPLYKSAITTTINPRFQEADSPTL
# Test: Alpha4-Beta7 Assay (MadCAM/RPMI 8866 cell adhesion)
# Assay type: cell-based
# Conditions: calcein labeled RPMI 8866 cells adhering to immobilized MadCAM
# Protocol: Alpha4-Beta7 Assay Protocol
# Two weeks to one day prior to the assay, Nunc high-binding F96 Maxisorp immuno plates, #442404 or #439454, were coated with 25 ng/well (0.25 μg/ml) MadCAM in a volume of 100 μl/well. The plates were covered with sealer and wrapped in saran wrap followed by incubation in the refrigerator for at least 24 hours. The coating buffer employed was: 10 mM carbonate/bicarbonate buffer made up from: 0.8 g/L sodium carbonate and 1.55 g/L sodium bicarbonate adjusted to pH 9.6 with 1 N HCl. Assay buffers consisted of the following:
# Plates were washed 2× with wash buffer and then blocked at room temperature for at least 1 hour with Blocking Buffer. Sealed plates were sometimes blocked overnight in the refrigerator. Plates were then washed with PBS and hand blotted dry. Remaining liquid was aspirated from the wells.
# Sufficient RPMI 8866 cells were removed from stock for assay (2×10^6 cells/ml×10 ml/plate×number of plates) and placed in a centrifuge tube. The tubes were filled to volume with PBS and were spun at 200×G for 8 minutes. The buffer was poured off and the cells were resuspended to 10×10^6/ml in PBS and a stock solution of calcein in DMSO (5mg/mL) was added at 51 μl/ml of cell suspension. The suspension was incubated for 30 minutes at 37° C. in dark. The cells were then washed with PBS. The PBS was poured off and the cells resuspended in cell buffer at a concentration of 2×10^6 cells/mL for plating in the assay.
# Stock solution of test compounds at 25× first dilution desired in 100% DMSO were prepared. First dilutions for the standard, as well as test compounds, were 1:25 into straight Binding Buffer, while the remaining serial dilutions were into Dilution Buffer (Binding Buffer/4% DMSO). Stock concentrations and dilutions of compounds for screening were determined by anticipated activity.
# For the assay, 129 μl Binding Buffer was plated into first row of wells and 100 μl Dilution Buffer was plated into remaining wells. A 5.44 μl aliquot of each compound was pipetted into appropriate, labeled wells, in triplicate. The compounds were next diluted down the plate (34 μl+100 μl=>4-fold dilution). For controls, 100 μl of Dilution Buffer 100 μl Cell Buffer were plated into the nonspecific background wells (no cells, no compound) and 100 μl Dilution Buffer+100 μl cells were plated into the total binding wells (no compound=100% binding). Labeled cells at 2×10^6 cells/ml, 100 μl/well (=2×10^5 cells/well) were added to each well containing compound. The plates were sealed and incubated in the dark for 45 minutes at room temperature. Following incubation, unbound cells were removed by adding 150 μl PBS/well. The plates were inverted, blotted onto paper towels and washed by gently adding 200 μl PBS to wells and blotting again. Remaining buffer was carefully aspirated from the wells. A final 100 μl PBS was added to each well.
# The plates were then read for fluorescence intensity on a Cytofluor 2300 (Millipore) fluorecence measurement system (excitation=485 nm, emission=530 nm). IC50s of each compound were determined by linear regression analysis.
row,Compound,IC50
1,"CCc1cccc(Cl)c1C(=O)N[C@@H](Cc1ccc(-c2c(C)n(C)c(=O)n(C)c2=O)cc1)C(=O)O [Example 15, N-[(2-chloro-6-ethylphenyl)carbonyl]-4-(1,3,6-trimethyl-2,4-dioxo-5-pyrimidinyl)-L-phenylalanine]",< 10 µM
2,"CCn1c(C)c(-c2ccc(C[C@H](NC(=O)c3c(C)cccc3Cl)C(=O)O)cc2)c(=O)n(CC)c1=O [Example 19, N-[(2-chloro-6-methylphenyl)carbonyl]-4-(1,3-diethyl-6-methyl-2,4-dioxo-5-pyrimidinyl)-L-phenylalanine]",< 10 µM
3,"Cc1cccc(Br)c1C(=O)N[C@@H](Cc1ccc(-c2c(C)n(C)c(=O)n(C)c2=O)cc1)C(=O)O [Example 8, N-[(2-bromo-6-methylphenyl)carbonyl]-4-(1,3,6-trimethyl-2,4-dioxo-5-pyrimidinyl)-L-phenylalanine]",< 0.1 µM
4,"CCOC(=O)[C@H](Cc1ccc(-c2c(C)n(C)c(=O)n(C)c2=O)cc1)NC(=O)c1c(Cl)cccc1Cl [Example 27, N-[(2,6-dichlorophenyl)carbonyl]-4-(1,3,6-trimethyl-2,4-dioxo-5-pyrimidinyl)-L-phenylalanine ethyl ester]",< 10 µM
5,"Cc1cccc(Cl)c1C(=O)N[C@@H](Cc1ccc(-c2c(C(F)(F)F)n(C)c(=O)n(C)c2=O)cc1)C(=O)O [Example 22, N-[(2-chloro-6-methylphenyl)carbonyl]-4-[1,3-dimethyl-2,4-dioxo-6-(trifluoromethyl)-5-pyrimidinyl]-L-phenylalanine]",< 10 µM
6,"Cc1cc(C[C@H](NC(=O)c2c(Cl)cccc2Cl)C(=O)O)ccc1-c1c(C)n(C)c(=O)n(C)c1=O [Example 26, N-[(2,6-dichlorophenyl)carbonyl]-4-(1,3,6-trimethyl-2,4-dioxo-5-pyrimidinyl)-3-methyl-L-phenylalanine]",< 10 µM
7,"Cn1c(C(F)(F)F)c(-c2ccc(C[C@H](NC(=O)c3c(F)cccc3C(F)(F)F)C(=O)O)cc2)c(=O)n(C)c1=O [Example 23, N-[[2-fluoro-6-(trifluoromethyl)phenyl]carbonyl]-4-(1,3-dimethyl-2,4-dioxo-6-(trifluoromethyl)-5-pyrimidinyl)-L-phenylalanine]",< 10 µM
8,"CCCc1cccc(Cl)c1C(=O)N[C@@H](Cc1ccc(-c2c(C)n(C)c(=O)n(C)c2=O)cc1)C(=O)O [Example 16, N-[(2-chloro-6-propylphenyl)carbonyl]-4-(1,3,6-trimethyl-2,4-dioxo-5-pyrimidinyl)-L-phenylalanine]",< 10 µM
